Assay results taken from the CheMixHub viscosity set.

Assay: xn = mol fraction of the nth substance listed

Fc1c(F)c(F)c(F)c(F)c1F + Cc1cccc(C)n1
viscosity [mPa·s], 101.33 kPa
Conditions | x2 = 0.091 | x2 = 0.165 | x2 = 0.229 | x2 = 0.283 | x2 = 0.497 | x2 = 0.5 | x2 = 0.712 | x2 = 0.767 | x2 = 0.832 | x2 = 0.908
293.15 K | – | 0.9415 | 0.9457 | – | – | 0.9333 | 0.8943 | 0.8824 | 0.8673 | 0.8549
298.15 K | – | 0.869 | 0.8709 | 0.8665 | 0.8598 | 0.8584 | 0.8268 | 0.8175 | 0.8052 | 0.7928
308.15 K | – | 0.7494 | 0.7485 | 0.7439 | 0.7372 | 0.736 | 0.7137 | 0.7072 | 0.6997 | 0.6916
318.15 K | 0.6629 | 0.6586 | 0.6562 | – | 0.6401 | 0.6401 | 0.6252 | 0.6209 | 0.616 | 0.611

C1=Cc2cccc3cccc1c23 + Cc1ccccc1
viscosity [mPa·s], 101 kPa
Conditions | 303.15 K | 308.15 K | 313.15 K | 318.15 K
x1 = 0.1292 | 0.6888 | 0.6467 | 0.608 | 0.573
x1 = 0.195 | 0.794 | 0.74 | 0.6961 | 0.6516

C=C1CCC2CC1C2(C)C (configuration not stated) + Cc1ccccc1
viscosity [mPa·s], 101 kPa
Conditions | x2 = 0.2689 | x2 = 0.3867 | x2 = 0.4951 | x2 = 0.5953 | x2 = 0.6881 | x2 = 0.7744 | x2 = 0.8547 | x2 = 0.9298
303.15 K | 1.188 | 0.995 | 0.86 | 0.754 | 0.684 | 0.633 | 0.595 | 0.564
308.5 K | 1.112 | 0.93 | 0.803 | 0.703 | 0.642 | 0.595 | 0.565 | 0.536
313.15 K | 1.027 | 0.863 | 0.745 | 0.654 | 0.598 | 0.56 | 0.534 | 0.505

Cc1cccc(N)c1 + Cc1ccccc1
303.15 K, 101.33 kPa
Conditions | viscosity [mPa·s]
x1 = 0.168 | 0.61
x1 = 0.422 | 0.8
x1 = 0.619 | 1.05
x1 = 0.801 | 1.53

CCCC[N+](CCCC)(CCCC)CCCC.[Br-] + ClC(Cl)(Cl)Cl
303.15 K, 101 kPa
Conditions | viscosity [mPa·s]
x1 = 0.0245 | 2.46
x1 = 0.026 | 2.59
x1 = 0.0348 | 3.22
x1 = 0.0608 | 7.11
x1 = 0.0946 | 14.33
x1 = 0.1162 | 24.57
x1 = 0.1446 | 36.49
x1 = 0.1666 | 56.17
x1 = 0.1764 | 63.7
x1 = 0.2004 | 101.7
x1 = 0.2171 | 141.8
x1 = 0.2631 | 307.1
x1 = 0.3449 | 1248

C1=Cc2cccc3cccc1c23 + ClC(Cl)Cl
viscosity [mPa·s], 101 kPa
Conditions | 298.15 K | 303.15 K | 308.15 K | 313.15 K
x1 = 0.1595 | 0.892 | 0.8295 | 0.7764 | 0.7199
x1 = 0.2105 | 0.9695 | 0.907 | 0.8473 | 0.7968

CCCC[N+](CCCC)(CCCC)CCCC.[Br-] + NCCO
101 kPa, x1 = 0.143
Conditions | viscosity [mPa·s]
298.15 K | 53.49
303.15 K | 40.7
308.15 K | 31.66
313.15 K | 25.12
318.15 K | 20.28
323.15 K | 16.63

NCCN1CCNCC1 + NCCO.O=CO
viscosity [mPa·s], 100 kPa
Conditions | x2 = 0.2317 | x2 = 0.3408 | x2 = 0.4457 | x2 = 0.5468 | x2 = 0.6441 | x2 = 0.7379 | x2 = 0.8283
298.15 K | 130.1 | 250.1 | 379.1 | 466.9 | 462.4 | 357.8 | 264.9
303.15 K | 80.27 | 188.7 | 266.6 | 322.5 | 323.3 | 259 | 196.6
308.15 K | – | 136.2 | 191.3 | 230.5 | 234.9 | 192 | 149.1
313.15 K | – | 102.4 | 141.7 | 170 | 173.6 | 146.6 | 115.8
318.15 K | – | 78.62 | 106.8 | 127.9 | 131.8 | 113.7 | 91.74
323.15 K | – | 61.55 | 83.63 | 98.95 | 102.1 | 89.85 | 74.36

CCCCO + O
Conditions | viscosity [mPa·s]
293.15 K, 100 kPa, x1 = 0.02 | 1.378
293.15 K, 100 kPa, x1 = 0.5485 | 3.301
293.15 K, 101 kPa, x1 = 0.005 | 1.077
293.15 K, 101 kPa, x1 = 0.01 | 1.155
293.15 K, 101 kPa, x1 = 0.015 | 1.232
298.15 K, 101 kPa, x1 = 0.005 | 0.947
298.15 K, 101 kPa, x1 = 0.01 | 1.003
298.15 K, 101 kPa, x1 = 0.015 | 1.058
298.15 K, 101 kPa, x1 = 0.69 | 2.598
298.15 K, 101 kPa, x2 = 0.0398 | 2.622
298.15 K, 101 kPa, x2 = 0.0784 | 2.618
298.15 K, 101 kPa, x2 = 0.1202 | 2.619
298.15 K, 101 kPa, x2 = 0.1424 | 2.62
298.15 K, 101 kPa, x2 = 0.163 | 2.626
298.15 K, 101 kPa, x2 = 0.1955 | 2.634
298.15 K, 101 kPa, x2 = 0.2265 | 2.647
298.15 K, 101 kPa, x2 = 0.2719 | 2.679
298.15 K, 101.3 kPa, x1 = 0.003 | 0.9421
298.15 K, 101.3 kPa, x1 = 0.006 | 0.994
298.15 K, 101.3 kPa, x1 = 0.009 | 1.047
298.15 K, 101.3 kPa, x1 = 0.012 | 1.1
298.15 K, 101.33 kPa, x1 = 0.0017 | 0.921
298.15 K, 101.33 kPa, x1 = 0.00297 | 0.941
298.15 K, 101.33 kPa, x1 = 0.00364 | 0.949
298.15 K, 101.33 kPa, x1 = 0.00491 | 0.97
298.15 K, 101.33 kPa, x1 = 0.00559 | 0.981
298.15 K, 101.33 kPa, x1 = 0.0081 | 1.021
298.15 K, 101.33 kPa, x1 = 0.00972 | 1.048
298.15 K, 101.33 kPa, x1 = 0.0124 | 1.096
298.15 K, 101.33 kPa, x1 = 0.0136 | 1.114
298.15 K, 101.33 kPa, x1 = 0.0151 | 1.141
298.15 K, 101.33 kPa, x1 = 0.0166 | 1.166
298.15 K, 101.33 kPa, x1 = 0.0179 | 1.185
303.15 K, 101 kPa, x1 = 0.005 | 0.842
303.15 K, 101 kPa, x1 = 0.01 | 0.883
303.15 K, 101 kPa, x1 = 0.015 | 0.93
303.15 K, 101.33 kPa, x1 = 0.013 | 0.968
303.15 K, 101.33 kPa, x2 = 0.095 | 2.236
303.15 K, 101.33 kPa, x2 = 0.2526 | 2.272
303.15 K, 101.33 kPa, x2 = 0.4385 | 2.42
308.15 K, 101 kPa, x1 = 0.005 | 0.758
308.15 K, 101 kPa, x1 = 0.01 | 0.794
308.15 K, 101 kPa, x1 = 0.015 | 0.841
308.15 K, 101 kPa, x2 = 0.0398 | 2.032
308.15 K, 101 kPa, x2 = 0.0784 | 2.022
308.15 K, 101 kPa, x2 = 0.1202 | 2.017
308.15 K, 101 kPa, x2 = 0.1424 | 2.016
308.15 K, 101 kPa, x2 = 0.163 | 2.017
308.15 K, 101 kPa, x2 = 0.1955 | 2.024
308.15 K, 101 kPa, x2 = 0.2265 | 2.027
313.15 K, 101 kPa, x1 = 0.005 | 0.682
313.15 K, 101 kPa, x1 = 0.01 | 0.712
313.15 K, 101 kPa, x1 = 0.015 | 0.746
318.15 K, 101 kPa, x1 = 0.005 | 0.62
318.15 K, 101 kPa, x1 = 0.01 | 0.638
318.15 K, 101 kPa, x1 = 0.015 | 0.662
318.15 K, 101 kPa, x2 = 0.0412 | 1.597
318.15 K, 101 kPa, x2 = 0.0733 | 1.588
318.15 K, 101 kPa, x2 = 0.1101 | 1.581
318.15 K, 101 kPa, x2 = 0.1458 | 1.576
318.15 K, 101 kPa, x2 = 0.1755 | 1.571
318.15 K, 101 kPa, x2 = 0.2129 | 1.578
323.15 K, 100 kPa, x1 = 0.02 | 0.668
323.15 K, 100 kPa, x1 = 0.5485 | 1.447
323.15 K, 101 kPa, x1 = 0.005 | 0.566
323.15 K, 101 kPa, x1 = 0.01 | 0.58
323.15 K, 101 kPa, x1 = 0.015 | 0.602

C[C@H](CCC(=O)[O-])[C@H]1CC[C@H]2[C@@H]3[C@H](O)C[C@@H]4C[C@H](O)CC[C@]4(C)[C@H]3C[C@H](O)[C@]12C.[Na+] + O
viscosity [mPa·s], 101 kPa
Conditions | x1 = 4.223e-05 | x1 = 8.385e-05 | x1 = 0.0001682 | x1 = 0.0003376 | x1 = 0.0004225 | x1 = 0.0005082 | x1 = 0.0006801 | x1 = 0.0008535
293.15 K | – | – | – | – | – | – | 1.082 | 1.105
298.15 K | – | 0.8984 | – | 0.9231 | – | 0.9405 | 0.9598 | 0.9782
303.15 K | 0.801 | 0.8044 | 0.8115 | 0.8262 | 0.8337 | – | 0.8579 | 0.875
308.15 K | – | 0.7264 | 0.7329 | 0.7454 | 0.7527 | 0.7593 | 0.774 | 0.7887
313.15 K | – | – | – | 0.6763 | 0.6826 | – | 0.7016 | 0.7154

NC(N)=S + O
viscosity [mPa·s], 100 kPa
Conditions | 293.15 K | 298.15 K | 303.15 K | 308.15 K | 313.15 K
x1 = 0.00045 | 1.01 | 0.907 | 0.817 | 0.735 | 0.668
x1 = 0.0009 | 1.019 | 0.916 | 0.823 | 0.747 | 0.677
x1 = 0.0013 | 1.029 | 0.935 | 0.847 | 0.763 | 0.702
